According to patent US11312721B2 (priority 2015, dated 2022):

Tests used:
aged-impaired (AI) rats [1] = experiment: Morris water maze behavioral task; format: in vivo, rat; conditions: 100 μg ICV
Procedure: The effects of 6,6 dimethyl-3-(3-hydroxypropyl)thio-1-(thiazol-2-yl)-6,7-dihydro-2-benzothiophen-4(5H)-one on the in vivo spatial memory retention of aged-impaired (AI) rats were assessed in a Morris water maze behavioral task. A water maze is a pool surrounded with a novel set of patterns relative to the maze.
Cognitively impaired aged rats were implanted unilaterally with a cannula into the lateral ventricle. Stereotaxic coordinates were 1.0 mm posterior to bregma, 1.5 mm lateral to midline, and 3.5 mm ventral to the skull surface. After about a week of recovery, the rats were pre-trained in a water maze for 2 days (6 trials per day) to locate a submerged escape platform hidden underneath the surface of the pool, in which the escape platform location varied from day to day. No intracerebroventricular (ICV) infusion was given during pre-training.
After pre-training, rats received ICV infusion of either 100 μg 6,6 dimethyl-3-(3-hydroxypropyl)thio-1-(thiazol-2-yl)-6,7-dihydro-2-benzothiophen-4(5H)-one (n=6) in 5 μl DMSO or vehicle DMSO (n=5) 40 min prior to water maze training and testing. Training consisted of 8 trials per day for 2 days where the hidden escape platform remained in the same location. Rats were given 60 seconds to locate the platform with a 60 seconds inter-trial interval. The rats were given a probe test (120 seconds) 24 hr. after the end of training where the escape platform was removed. During the training, there were 4 blocks, where each block had 4 training trials.
During a test trial 24 hr. after training, the escape platform was removed. The search/swim pattern of the rats was used to measure whether the rats remember where the escape platform was located during pre-trial training in order to test for the long-term memory of the rats. In this trial, “target annulus” is a designated area 1.5 times the size of the escape platform around the area where the platform was located during pre-trial training. “Opposite annulus” is a control area of the same size as the size of the target annulus, which is located opposite to the target annulus in the pool. If the rats had good long term memory, they would tend to search in the area surrounding the location where the platform was during the pre-trial training (i.e., the “target” annulus; and not the “opposite” annulus). “Time in annulus” is the amount of time in seconds that the rat spent in the target or opposite annulus area. “Number (#) of crossings” in annulus is the number of times the rat swam across the target or opposite annulus area.

MAM-treated rats = conditions: cited from earlier work
GABAA receptors (α5β2γ2) = target: T1, GABAA receptors (α5β2γ2) (Homo sapiens, UniProt P18507+P31644); experiment: Positive allosteric modulator activity: potentiation of EC20 GABA current in oocytes; format: cell-based; conditions: read-out: GABA α5 functional potentiation
T1 construct: expressed in transfected cells
Procedure: On day 1, 1 ng/32 nL of GABAA α5β2γ2 cDNA was injected into one oocyte. Test starts on day 2. The cDNA injected to the oocytes was a mix of alpha, beta and gamma, their ratio is 1:1:10 (by weight) and the total weight of the mixed 3 subunits to be injected in one oocyte was 1 ng in 32 nl volume. The injected oocytes can also be tested on day 3. In such case, the cDNA amount injected to the oocytes should be reduced by 20%.
1). 8 oocytes were placed in 8 chambers of OpusXpress and superfused with Modified Barth's Saline (MBS) at 3 mL/min. Glass electrodes back-filled with 3M KCl (0.5-3 megaohms) were used.
1). Repeat the above steps 1), 2) and 3) in the control test.
2). […] Divide Itest by IGABA to obtain potentiation (%).
3). Discard all tested oocytes, new oocytes were used and the above steps 1) and 2) were repeated to test second concentration of the same compound. Each oocyte was used for only one concentration test for a single test compound. The steps were repeated for other test compounds.

[2] = target: T2, α5β3γ2 GABAA receptors (Ltk cells) (Homo sapiens, UniProt P18507+P31644); experiment: Binding activity on GABAAR: inhibition of [3H]Ro15-1788 binding
T2 construct: membranes
Procedure: Tissue culture and Membrane Preparation: The binding was performed on Ltk cells stably expressing GABAA receptors: α1β1γ2, α2β3γ2, α3β3γ2 and α5β3γ2 (provided by Merck Co., NJ, USA). Cells were seeded in 100 mm culture plates in DMEM/F12 medium containing 10% serum and antibiotics in 5% CO2 and allowed to grow for 1-2 days. GABAAR expression was then induced by dexamethasone as follows: 0.5 μM for 1 day for α5 containing and 2 μM for 3 days for α1, α2 and α3 containing GABAARs. After induction, cells were collected by scraping into Dulbecco's Phosphate buffered saline (DPBS, pH 7.4, Invitrogen, Carlsbad, Calif., USA) and centrifuged at 150×g for 10 min. The pellet was washed twice by re-suspension and centrifugation. The cell pellets from at least 5 different preps were combined, suspended in the binding assay buffer (50 mM KH2PO4; 1 mM EDTA; 0.2 M KCl, pH 7.4) and membranes prepared by sonication (3-5 times, 30 sec) using Branson Sonifier 150 (G. Heinmann, Germany). Protein content was determined using BCA assay (Bio-Rad Labs, Reinach, Switzerland) with Bovine Serum Albumin (Sigma Aldrich, St. Louis, Mo., USA) as the standard. Aliquots were prepared and stored at −20° C. for further use in binding assays.
Ligand Binding: Saturation binding curves were obtained by incubating membranes with increasing concentrations (0.01-8 nM) of [^3H]Ro15-1788 (Flumazepil, 75-85 Ci/mmol, PerkinElmer, MA, USA), with nonspecific binding measured in the presence of 10 μM diazepam.
All binding assays were performed for 1 h at 4° C. in assay buffer. The total assay volume was 0.5 ml containing 0.2 mg/ml protein for α5 and 0.4 mg/ml for α1, α2, and α3 containing GABAAR membranes. Incubations were terminated by filtration through GF/B filters using a 24-Cell Harvestor (Brandel, Gaithersburg, Md., USA) followed by 3 washes with ice-cold assay buffer. Filters were transferred to scintillation vials, 5 ml scintillation liquid added, vortex-mixed and kept in dark. Next day, radioactivity was obtained using a scintillation counter (Beckman Coulter, Brea, Calif., USA). All assays were performed in triplicate.
Data Analyses: Saturation and inhibition curves were obtained using GraphPad Prism software (GraphPad Software, Inc., CA, USA).

GABAA α5 receptor = target: T3, GABAA α5 receptor (Rattus norvegicus, UniProt P19969); experiment: GABAA α5 receptor occupancy in vivo with Ro 15-4513 tracer; set-up: species or system Long Evans rats; conditions: for effect on Ro 15-4513 binding in hippocampus and cerebellum: 0.01-10 mg/kg
T3 construct: from tissue
Source text: Food and water were available ad libitum.

aged-impaired (AI) rats [3] = experiment: Radial Arm Maze (RAM) behavioral task, spatial memory retention; format: in vivo, rat; conditions: four-hour delay RAM
Procedure: The effects of methyl 3,5-diphenylpyridazine-4-carboxylate on the in vivo spatial memory retention of aged-impaired (AI) rats were assessed in a Radial Arm Maze (RAM) behavioral task using vehicle control and four different dosage levels of methyl 3,5-diphenylpyridazine-4-carboxylate ([…]). RAM behavioral tasks were performed on eight AI rats. All five treatment conditions (vehicle and four dosage levels) were tested on all eight rats.
The RAM apparatus used consisted of eight equidistantly-spaced arms. An elevated maze arm (7 cm width×75 cm length) projected from each facet of an octagonal center platform (30 cm diameter, 51.5 cm height). Clear side walls on the arms were 10 cm high and were angled at […] to form a trough. A food well (4 cm diameter, 2 cm deep) was located at the distal end of each arm. Froot Loops™ (Kellogg Company) were used as rewards. Blocks constructed of Plexiglas™ (30 cm height×12 cm width) could be positioned to prevent entry to any arm. Numerous extra maze cues surrounding the apparatus were also provided.
The AI rats were initially subjected to a pre-training test (Chappell et al. Neuropharmacology 37: 481-487, 1998). The pre-training test consisted of a habituation phase (4 days), a training phase on the standard win-shift task (18 days) and another training phase (14 days) in which a brief delay was imposed between presentation of a subset of arms designated by the experimenter (e.g., 5 arms available and 3 arms blocked) and completion of the eight-arm win-shift task (i.e., with all eight arms available).
In the habituation phase, rats were familiarized to the maze for an 8-minute session on four consecutive days. In each of these sessions, food rewards were scattered on the RAM, initially on the center platform and arms and then progressively confined to the arms. After this habituation phase, a standard training protocol was used, in which a food pellet was located at the end of each arm. Rats received one trial each day for 18 days. Each daily trial terminated when all eight food pellets had been obtained or when either 16 choices were made or 15 minutes had elapsed. After completion of this training phase, a second training phase was carried out in which the memory demand was increased by imposing a brief delay during the trial. At the beginning of each trial, three arms of the eight-arm maze were blocked. Rats were allowed to obtain food on the five arms to which access was permitted during this initial “information phase” of the trial. Rats were then removed from the maze for 60 seconds, during which time the barriers on the maze were removed, thus allowing access to all eight arms. Rats were then placed back onto the center platform and allowed to obtain the remaining food rewards during this “retention test” phase of the trial. […]

[4] = probe test 24 hr. after training

T2 sequence (P31644 32-462): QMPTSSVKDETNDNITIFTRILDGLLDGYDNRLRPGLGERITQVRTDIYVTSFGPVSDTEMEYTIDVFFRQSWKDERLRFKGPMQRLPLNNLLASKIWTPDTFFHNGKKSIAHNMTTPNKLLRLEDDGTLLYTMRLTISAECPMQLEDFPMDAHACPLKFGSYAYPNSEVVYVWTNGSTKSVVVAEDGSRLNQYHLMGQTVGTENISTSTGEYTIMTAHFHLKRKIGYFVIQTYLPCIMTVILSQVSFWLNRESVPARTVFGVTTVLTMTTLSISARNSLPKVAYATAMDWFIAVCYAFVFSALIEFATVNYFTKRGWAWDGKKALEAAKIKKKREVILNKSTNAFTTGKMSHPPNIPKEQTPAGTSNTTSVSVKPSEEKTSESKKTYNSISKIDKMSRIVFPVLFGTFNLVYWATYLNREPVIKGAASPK
T2 sequence (P28472 26-473 partner): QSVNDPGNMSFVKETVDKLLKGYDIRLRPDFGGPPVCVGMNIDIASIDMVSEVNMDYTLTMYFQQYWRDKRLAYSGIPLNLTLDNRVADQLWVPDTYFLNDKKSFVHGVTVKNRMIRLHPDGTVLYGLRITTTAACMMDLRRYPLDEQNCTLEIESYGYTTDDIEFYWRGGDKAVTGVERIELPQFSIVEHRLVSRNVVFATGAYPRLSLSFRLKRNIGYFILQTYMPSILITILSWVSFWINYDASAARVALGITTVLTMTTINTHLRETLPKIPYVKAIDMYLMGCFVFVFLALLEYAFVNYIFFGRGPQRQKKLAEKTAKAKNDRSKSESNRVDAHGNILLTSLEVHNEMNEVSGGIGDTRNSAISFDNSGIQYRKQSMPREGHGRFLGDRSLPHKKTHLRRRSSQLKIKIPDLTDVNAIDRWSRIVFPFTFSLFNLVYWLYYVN
T2 sequence (P18507 40-475): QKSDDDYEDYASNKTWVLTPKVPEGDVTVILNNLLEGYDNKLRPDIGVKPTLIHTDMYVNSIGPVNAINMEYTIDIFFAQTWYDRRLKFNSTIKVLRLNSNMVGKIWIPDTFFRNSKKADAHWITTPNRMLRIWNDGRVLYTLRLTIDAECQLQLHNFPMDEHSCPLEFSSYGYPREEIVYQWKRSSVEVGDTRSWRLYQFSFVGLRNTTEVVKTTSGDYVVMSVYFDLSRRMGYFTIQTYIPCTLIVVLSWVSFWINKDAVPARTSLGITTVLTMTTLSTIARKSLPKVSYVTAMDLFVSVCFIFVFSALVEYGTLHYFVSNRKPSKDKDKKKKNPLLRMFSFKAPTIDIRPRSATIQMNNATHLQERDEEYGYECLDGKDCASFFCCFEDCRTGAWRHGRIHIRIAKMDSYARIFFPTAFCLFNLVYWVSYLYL
T1 sequence (P31644 32-462): as the sequence (P31644 32-462) above
T1 sequence (P47870 25-512 partner limits assumed): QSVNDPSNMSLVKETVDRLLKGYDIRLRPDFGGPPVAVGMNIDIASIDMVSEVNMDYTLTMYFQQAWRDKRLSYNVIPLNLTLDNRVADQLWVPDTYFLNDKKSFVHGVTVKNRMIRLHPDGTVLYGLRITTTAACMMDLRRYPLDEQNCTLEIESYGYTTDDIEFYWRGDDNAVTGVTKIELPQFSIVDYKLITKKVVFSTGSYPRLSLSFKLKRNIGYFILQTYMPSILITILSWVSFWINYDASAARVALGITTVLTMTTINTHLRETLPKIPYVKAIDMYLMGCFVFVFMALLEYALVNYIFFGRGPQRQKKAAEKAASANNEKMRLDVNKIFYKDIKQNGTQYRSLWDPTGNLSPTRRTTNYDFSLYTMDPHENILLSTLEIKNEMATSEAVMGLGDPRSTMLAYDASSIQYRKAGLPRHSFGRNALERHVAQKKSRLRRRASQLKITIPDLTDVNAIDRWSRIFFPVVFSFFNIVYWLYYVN
T1 sequence (P18507 40-475): as the sequence (P18507 40-475) above
T3 sequence (P19969 32-464 limits assumed): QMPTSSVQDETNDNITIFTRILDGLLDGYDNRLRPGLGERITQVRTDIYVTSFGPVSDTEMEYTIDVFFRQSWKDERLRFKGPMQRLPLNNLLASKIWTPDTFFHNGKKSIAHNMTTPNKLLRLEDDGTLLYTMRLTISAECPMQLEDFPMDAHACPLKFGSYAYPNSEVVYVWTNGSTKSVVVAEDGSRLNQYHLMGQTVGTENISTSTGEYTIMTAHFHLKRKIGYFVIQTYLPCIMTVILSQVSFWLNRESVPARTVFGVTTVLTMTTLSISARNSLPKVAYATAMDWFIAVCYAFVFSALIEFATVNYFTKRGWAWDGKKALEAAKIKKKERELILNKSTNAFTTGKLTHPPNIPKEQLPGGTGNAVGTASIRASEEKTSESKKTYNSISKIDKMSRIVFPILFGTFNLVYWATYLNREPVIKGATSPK

Compound	activation at 0.1 µM (GABAA receptors (α5β2γ2)) [%]	Ki [2] [nM]	also measured
CC1(C)CC(=O)c2c(SCCCO)sc(-c3nccs3)c2C1 [6,6 dimethyl-3-(3-hydroxypropyl)thio-1-(thiazol-2-yl)-6,7-dihydro-2-benzothiophen-4(5H)-one]	–	–	time to find the escape platform (aged-impaired (AI) rats [1]; block 1 (beginning of training)): about 24 seconds; time to find the escape platform (aged-impaired (AI) rats [1]; block 4 (end of training)): about 9.6 seconds; number of crossings of target annulus compared with opposite annulus (aged-impaired (AI) rats [1]; [4]): crossed the “target annulus” more often; time in target annulus compared with opposite annulus (aged-impaired (AI) rats [1]; [4]): spent significantly more time in the target annulus
C#Cc1ccc2c(c1)C(c1ccccc1F)=N[C@H](C)c1c(C(=O)OCC)ncn1-2 [SH-053-2′F—R—CH3]	–	–	number of spontaneously active DA neurons in the VTA (MAM-treated rats; MAM rats, systemic or infused into the ventral HPC): reduces the number of spontaneously active DA neurons in the ventral tegmental area (VTA) of MAM rats to levels observed in saline-treated rats; locomotor response to amphetamine (MAM-treated rats; MAM-treated rats): is reduced; cortical-evoked responses of HPC neurons (MAM-treated rats; saline-treated and MAM-treated animals): diminished cortical-evoked responses
COCc1nnc2n1Cc1c(-c3nc(C)no3)ncn1-c1ccc(Cl)cc1-2 [Compound 198]	20 to 49	< 99	–
COCc1nnc2n1Cc1c(C3=NCCO3)ncn1-c1ccc(Cl)cc1-2 [Compound 238]	20 to 49	< 99	–
COc1ccc2c(c1)-n1nnc(Cc3ccccc3)c1Cc1c(C#N)ncn1-2 [Compound 207]	20 to 49	< 99	–
COc1ccc2c(c1)-c1nnc(COCc3ccccc3F)n1Cc1c(-c3noc(C(C)C)n3)ncn1-2 [Compound 184]	20 to 49	< 99	–
CCOCc1nnc2n1Cc1c(-c3noc(C(C)C)n3)ncn1-c1ccc(F)cc1-2 [Compound 187]	20 to 49	< 99	–
COc1ccc2c(c1)-n1nncc1Cc1c(C3=N[C@H](c4ccccc4)CO3)ncn1-2 [Compound 290]	20 to 49	< 99	–
CCOC(=O)c1ncn2c1CN(C)C(=O)c1cc(N=[N+]=[N-])ccc1-2 [Ro 15-4513]	–	–	tracer level, hippocampus compared with cerebellum (GABAA α5 receptor; 1 μg/kg, i.v. tracer after vehicle): > 5 fold
COCc1nnc2n1Cc1c(-c3noc(C(C)C)n3)ncn1-c1ccc(F)cc1-2 [Compound 186]	> 50	< 99	–
CCOC(=O)c1ncn2c1Cn1c(C)nnc1-c1cc(OC)ccc1-2 [ethyl 3-methoxy-7-methyl-9H-benzo[f]imidazo[1,5-a][1,2,4]tri]	–	–	memory performance relative to vehicle control (aged-impaired (AI) rats [3]; 3 mg/kg, t(7)=4.13, p=0.004, or t(7)=3.08, p=0.018): significantly improved memory performance; memory performance relative to vehicle control (aged-impaired (AI) rats [3]; 10 mg/kg, t(7)=2.82, p=0.026): significantly improved memory performance; effect on Ro 15-4513 binding in hippocampus and cerebellum (GABAA α5 receptor; i.v.): reduced Ro 15-4513 binding in hippocampus, without affecting cerebellum levels of Ro 15-4513; GABAA α5 receptor occupancy (GABAA α5 receptor; 10 mg/kg, i.v.): > 90%
COc1ccc2c(c1)-c1nnc(COCc3cccc(F)c3)n1Cc1c(-c3noc(C(C)C)n3)ncn1-2 [Compound 183]	20 to 49	< 99	–
CCOC(=O)c1ncn2c1Cn1c(C)nnc1-c1cc(OC)ccc1-2 [Ethyl 3-methoxy-7-methyl-9H-benzo[f]imidazo[1,5-a][1,2,4]tri]	–	–	effect on Ro 15-4513 binding in hippocampus and cerebellum (GABAA α5 receptor; i.v.): blocked the binding of Ro154513 in the hippocampus but did not affect binding of Ro15413 in the cerebellum
C#Cc1ncn2c1Cn1c(COC)nnc1-c1cc(Cl)ccc1-2 [Compound 256]	20 to 49	< 99	–
